Measurements: ChEMBL document CHEMBL5252531, “2015 Philip S. Portoghese Medicinal Chemistry Lectureship. Curing Hepatitis C Virus Infection with Direct-Acting Antiviral Agents: The Arc of a Medicinal Chemistry Triumph” (J Med Chem, 2016)

What was measured:
[1] = Cytotoxicity against human HEK293 cells assessed as reduction in cell viability […] after 72 hrs by alamar blue assay; type: toxicity, cell-based
[2] = Cytotoxicity against human MRC5 cells assessed as reduction in cell viability measured after 72 hrs by alamar blue assay; type: toxicity, cell-based
[3] = test system: Bovine viral diarrhea virus 1; test: Antiviral activity against Bovine viral diarrhea virus 1; type: functional, organism-based; conditions: Bovine viral diarrhea virus isolates and strains
[4] = test system: Human immunodeficiency virus 1; test: Antiviral activity against HIV-1; type: functional, organism-based
[5] = test system: Bovine viral diarrhea virus 1; test: Antiviral activity against Bovine viral diarrhea virus 1 infected in MDBK cells assessed as reduction in viral replication; type: functional, organism-based; conditions: Bovine viral diarrhea virus isolates and strains
[6] = test system: Hepatitis C virus; test: Antiviral activity against HCV GT1b-genotype assessed as inhibition of viral replication; type: functional, organism-based, Hepacivirus hominis
[7] = test system: Respiratory syncytial virus; test: Antiviral activity against RSV; type: functional, organism-based; conditions: human respiratory syncytial virus
[8] = test system: Huh-7; test: Cytotoxicity against human Huh-7 cells assessed as reduction in cell viability […] after 72 hrs by alamar blue assay; type: functional
[9] = test system: Human rhinovirus sp.; test: Antiviral activity against HRV; type: functional, organism-based
[10] = Cytotoxicity against African green monkey Vero cells assessed as reduction in cell viability […] after 72 hrs by alamar blue assay; type: toxicity, cell-based; conditions: chlorocebus sabaeus
[11] = test system: HeLa; test: Cytotoxicity against human HeLa cells assessed as reduction in cell viability measured after 72 hrs by Alamar blue assay; type: functional
[12] = Cytotoxicity against human MT2 cells assessed as cell viability measured after 72 hrs by MTT assay; type: toxicity, cell-based
[13] = test system: Hepatitis C virus; test: Antiviral activity against HCV genotype 1b expressing NS5B S365A mutant variant; type: functional, organism-based, Hepacivirus hominis
[14] = test system: Hepatitis C virus; test: Antiviral activity against HCV genotype 1a; type: functional, organism-based, Hepacivirus hominis
[15] = Oral bioavailability in rat at 3 mg/kg; type: ADME, organism-based; conditions: in vivo
[16] = test system: Hepatitis C virus; test: Antiviral activity against HCV genotype 1b; type: functional, organism-based, Hepacivirus hominis
[17] = in vivo; conditions: FVB, mouse, iv, 2 mg/kg
Description: Half life in FVB mouse at 2 mg/kg, iv measured after 24 hrs by HPLC method

[18] = in vivo; conditions: cynomolgus monkey, po, 3 mg/kg
[19] = AUC in Sprague-Dawley rat at 15 mg/kg, po measured after 24 hrs by LC-MS/MS analysis; type: ADME, organism-based; set-up: dose 15 mg/kg, time 24 hrs, route po; conditions: in vivo
[20] = test system: Hepatitis C virus; test: Antiviral activity against HCV genotype 4a; type: functional, organism-based, Hepacivirus hominis
[21] = test system: Hepatitis C virus; test: Inhibition of HCV genotype 1b; type: functional, organism-based, Hepacivirus hominis
[22] = test system: Hepatitis C virus; test: Inhibition of HCV genotype 2b; type: functional, organism-based, Hepacivirus hominis
[23] = in vivo; conditions: male, Sprague-Dawley, rat, po, 15 mg/kg
[24] = Drug concentration in Beagle dog liver at 6 mg/kg, po measured after 24 hrs by LC-MS/MS analysis; type: ADME, organism-based, Canis lupus familiaris; conditions: read-out: Ct
[25] = test system: Hepatitis C virus; test: Antiviral activity against HCV genotype 2a; type: functional, organism-based, Hepacivirus hominis
[26] = test system: Hepatitis C virus; test: Inhibition of HCV genotype 2a; type: functional, organism-based, Hepacivirus hominis
[27] = Drug concentration in Sprague-Dawley rat plasma at 15 mg/kg, po measured after 24 hrs by LC-MS/MS analysis; type: ADME, organism-based
[28] = test system: Hepatitis C virus; test: Antiviral activity against Hepatitis C virus infected RNA assessed as reduction in viral replication at 600 mg, po BID measured for 3 days; type: functional, Hepacivirus hominis; conditions: time 3 day
[29] = in vivo; conditions: Sprague-Dawley, rat, iv, 5 mg/kg
Description: Half life in Sprague-Dawley rat at 5 mg/kg, iv measured after 24 hrs by HPLC method

[30] = test system: Hepatitis C virus; test: Inhibition of HCV genotype 5a; type: functional, organism-based, Hepacivirus hominis
[31] = test system: Hepatitis C virus; test: Inhibition of HCV genotype 4a; type: functional, organism-based, Hepacivirus hominis
[32] = test system: Hepatitis C virus; test: Inhibition of HCV genotype 1a; type: functional, organism-based, Hepacivirus hominis
[33] = in vivo; conditions: cynomolgus monkey, iv, 1 mg/kg
Description: Half life in cynomolgus monkey at 1 mg/kg, iv measured after 24 hrs by HPLC method

[34] = Drug concentration in cynomolgus monkey liver at 10 mg/kg, po measured after 24 hrs by LC-MS/MS analysis; type: ADME, organism-based, Macaca fascicularis; conditions: read-out: Ct
[35] = AUC in cynomolgus monkey at 3mg/kg, po measured after 24 hrs by LC-MS/MS analysis; type: ADME, organism-based, Macaca fascicularis; set-up: time 24 hrs, route po; conditions: in vivo
[36] = test system: Hepatitis C virus; test: Inhibition of HCV genotype 3a; type: functional, organism-based, Hepacivirus hominis
[37] = AUC in FVB mouse at 5 mg/kg, po measured after 24 hrs by LC-MS/MS analysis; type: ADME, organism-based; set-up: dose 5 mg/kg, time 24 hrs, route po; conditions: in vivo
[38] = test system: Hepatitis C virus; test: Inhibition of HCV genotype 6a; type: functional, organism-based, Hepacivirus hominis
[39] = Drug concentration in Sprague-Dawley liver at 15 mg/kg, po measured after 24 hrs by LC-MS/MS analysis; type: ADME, organism-based; conditions: rat, read-out: Ct
[40] = Drug concentration in FVB mouse liver at 5 mg/kg, po measured after 24 hrs by LC-MS/MS analysis; type: ADME, organism-based; conditions: read-out: Ct
[41] = test system: Hepatitis C virus; test: Antiviral activity against HCV genotype 3a; type: functional, organism-based, Hepacivirus hominis
[42] = in vivo; conditions: beagle, dog, iv, 1 mg/kg
Description: Half life in Beagle dog at 1 mg/kg, iv measured after 24 hrs by HPLC method

[43] = Drug concentration in Beagle dog plasma at 6 mg/kg, po measured after 24 hrs by LC-MS/MS analysis; type: ADME, organism-based, Canis lupus familiaris
[44] = test system: Hepatitis C virus; test: Antiviral activity against Hepatitis C virus infected RNA assessed as reduction in viral replication at 200 mg, po BID measured for 3 days; type: functional, Hepacivirus hominis; conditions: time 3 day
[45] = in vivo; conditions: FVB, mouse, po, 5 mg/kg
[46] = AUC in Beagle dog at 3 mg/kg, po measured after 24 hrs by LC-MS/MS analysis; type: ADME, organism-based, Canis lupus familiaris; set-up: dose 3 mg/kg, time 24 hrs, route po; conditions: in vivo
[47] = test system: Hepatitis C virus; test: Antiviral activity against Hepatitis C virus infected RNA assessed as reduction in viral replication at 400 mg, po BID measured for 3 days; type: functional, Hepacivirus hominis; conditions: time 3 day
[48] = test system: Hepatitis C virus; test: Antiviral activity against HCV genotype 1b by replicon assay; type: functional, organism-based, Hepacivirus hominis
[49] = molecular target: T1, Hepatitis C virus serine protease, NS3/NS4A (Hepatitis C virus, UniProt A3EZI9+D2K2A8); test: Inhibition of C-terminal HCV NS4A-NS3 protease; type: protein-complex assay, Hepacivirus hominis
[50] = test system: Hepatitis C virus; test: Antiviral activity against Hepatitis C virus; type: functional, organism-based, Hepacivirus hominis
[51] = Oral bioavailability in rat plasma; type: ADME, organism-based; conditions: in vivo
[52] = molecular target: T1, Hepatitis C virus serine protease, NS3/NS4A; test: Inhibition of HCV NS4A-NS3 protease; type: protein-complex assay, Hepacivirus hominis
[53] = test system: Hepatitis C virus; test: Antiviral activity against HCV GT1a-genotype assessed as inhibition of viral replication; type: functional, organism-based, Hepacivirus hominis
[54] = test system: Hepatitis C virus; test: Antiviral activity against HCV GT1b-genotype assessed as viral growth inhibition measured after 24 hrs; type: functional, organism-based, Hepacivirus hominis; conditions: Hepatitis C virus, GT1b-genotype, 24 h
[55] = Solubility in water at pH 7; type: physicochemical

T1 sequence (D2K2A8 whole entry): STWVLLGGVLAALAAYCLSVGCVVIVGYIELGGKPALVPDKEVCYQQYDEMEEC
T1 sequence (A3EZI9 whole entry): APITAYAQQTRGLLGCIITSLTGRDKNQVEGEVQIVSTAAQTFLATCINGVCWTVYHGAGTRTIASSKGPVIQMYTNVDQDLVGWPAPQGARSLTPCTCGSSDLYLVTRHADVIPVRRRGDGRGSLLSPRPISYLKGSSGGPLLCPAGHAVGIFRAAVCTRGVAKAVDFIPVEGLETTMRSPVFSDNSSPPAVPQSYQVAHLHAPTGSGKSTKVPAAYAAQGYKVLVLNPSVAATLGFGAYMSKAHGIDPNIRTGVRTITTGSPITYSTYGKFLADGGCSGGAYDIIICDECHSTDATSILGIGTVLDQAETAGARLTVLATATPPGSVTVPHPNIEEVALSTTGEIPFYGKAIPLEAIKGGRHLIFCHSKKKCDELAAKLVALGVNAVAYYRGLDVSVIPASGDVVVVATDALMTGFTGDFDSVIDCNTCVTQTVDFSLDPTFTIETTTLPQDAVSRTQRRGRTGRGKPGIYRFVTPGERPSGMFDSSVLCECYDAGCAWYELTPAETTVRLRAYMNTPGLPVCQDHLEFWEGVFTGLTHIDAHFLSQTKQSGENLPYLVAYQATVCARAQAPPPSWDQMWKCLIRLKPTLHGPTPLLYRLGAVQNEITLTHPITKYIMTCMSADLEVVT

C[C@H](NC(=O)OCc1ccccc1)C(=O)Nc1ccc(C2S/C(=N\c3cccc(F)c3)N(Cc3ccco3)C2=O)cc1 (some centres not stated)
CC50 at 72 h [1]: > 50000 nM
CC50 at 72 h [2]: 41000 nM
EC50 [3]: 17000 nM
EC50 [4]: 41000 nM
EC50 [5]: 24000 nM
EC50 [6]: 570 nM
EC50 [7]: 23000 nM
CC50 [8]: > 100000 nM
EC50 [9]: > 100000 nM
CC50 at 72 h [10]: > 150000 nM
CC50 [11]: > 100000 nM
CC50 at 72 h [12]: 23000 nM

O=C(O)/C=C/c1ccc(NC(=O)C2(NC(=O)c3ccc4c(C5CCCCC5)c5n(c4c3)CC(=O)Nc3ccccc3-5)CCCC2)cc1
EC50 [13]: 8 nM

O=C1Cn2c(c(C3CCCCC3)c3ccc(C(=O)O)cc32)-c2ccccc2N1
EC50 [13]: 170 nM
EC50 [14]: < 10 nM
bioavailability [15]: 17%
EC50 [16]: < 10 nM

C=C[C@@H]1C[C@]1(NC(=O)[C@@H]1C[C@@H](Oc2ncc(OC)c3ccc(Cl)cc23)CN1C(=O)[C@@H](NC(=O)OC(C)(C)C)C(C)(C)C)C(=O)NS(=O)(=O)C1CC1
half-life at 24 h [17]: 4.6 h
bioavailability [18]: 11%
AUC at 24 h [19]: 1 µM·h
EC50 [20]: 1.8 nM
IC50 [21]: 0.3 nM
IC50 [22]: 78 nM
bioavailability [23]: 14%
concentration at 24 h [24]: 2500 nM
EC50 [25]: 230 nM
IC50 [26]: 15 nM
concentration at 24 h [27]: 40 nM
Activity [28]: 2.84 log10 IU/mL
half-life at 24 h [29]: 4.2 h
IC50 [30]: 1.7 nM
IC50 [31]: 1.6 nM
IC50 [32]: 0.7 nM
half-life at 24 h [33]: 1.3 h
concentration at 24 h [34]: 440 nM
AUC at 24 h [35]: 0.41 µM·h
IC50 [36]: 320 nM
AUC at 24 h [37]: 0.54 µM·h
IC50 [38]: 0.9 nM
concentration at 24 h [39]: 1200 nM
concentration at 24 h [40]: 710 nM
EC50 [41]: 1160 nM
half-life at 24 h [42]: 1 h
concentration at 24 h [43]: 6 nM
Activity [44]: 3.09 log10 IU/mL
bioavailability [45]: 28%
AUC at 24 h [46]: 2.2 µM·h
EC50 [16]: 1.2 nM
Activity [47]: 3.57 log10 IU/mL

O=C(Nc1ccc(/C=C/c2ccc(NC(=O)[C@@H]3CCCN3C(=O)CC3CC3)cc2)cc1)[C@@H]1CCCN1C(=O)CC1CC1
EC50 [16]: 62 nM

C=C[C@@H]1C[C@]1(NC(=O)[C@@H]1C[C@@H](Oc2cc(-c3ccccc3)nc3cc(OC)ccc23)CN1C(=O)[C@@H](NC(=O)OC(C)(C)C)C(C)(C)C)C(=O)O
EC50 [48]: 550 nM
IC50 [32]: 54 nM

COc1ccc2c(O[C@@H]3C[C@H]4C(=O)N[C@]5(C(=O)O)C[C@H]5/C=C\CCCCC[C@H](NC(=O)OC(C)(C)C)C(=O)N4C3)cc(-c3ccccc3)nc2c1
IC50 [49]: 11 nM
EC50 [50]: 1.2 nM
F [51]: 42%
IC50 [52]: 3 nM

CN(C)S(=O)(=O)NC(=O)c1ccc2c(C3CCCCC3)c3n(c2c1)C[C@@]1(C(=O)N2CCOCC2)C[C@H]1c1ccccc1-3
EC50 [53]: 41 nM
EC50 [54]: 51 nM

O=C(O)c1ccc2c(C3CCCCC3)c3n(c2c1)CC(C(=O)N1CCOCC1)=Cc1ccccc1-3
EC50 [53]: 404 nM
EC50 [54]: 359 nM

CN(C)S(=O)(=O)NC(=O)c1ccc2c(C3CCCCC3)c3n(c2c1)CC(C(=O)N1CCOCC1)=Cc1ccccc1-3
EC50 [53]: 119 nM
solubility [55]: < 1 µg/mL
EC50 [54]: 148 nM

COc1ccc2c(c1)C=C(C(=O)N1CCOCC1)Cn1c-2c(C2CCCCC2)c2ccc(C(=O)NS(=O)(=O)N(C)C)cc21
EC50 [53]: 61 nM
EC50 [54]: 62 nM

CN(C)S(=O)(=O)NC(=O)c1ccc2c(C3CCCCC3)c3n(c2c1)C[C@]1(C(=O)N2CCOCC2)C[C@@H]1c1ccccc1-3
EC50 [53]: 472 nM
EC50 [54]: 336 nM
